Laboratory results published in ChEMBL document CHEMBL1133411, “The design, synthesis and activity of non-ATP competitive inhibitors of pp60(c-src) tyrosine kinase. Part 2: hydroxyindole derivatives” (Bioorg Med Chem Lett, 2000).
Activity calls are given as the source filed them.

Experiments:
[1] = target: Proto-oncogene tyrosine-protein kinase Src (Homo sapiens) (UniProt P12931); assay: Percent inhibition against human recombinant p60 c-Src tyrosine kinase at 500 uM
[2] = target: Proto-oncogene tyrosine-protein kinase Src (Homo sapiens) (UniProt P12931); assay: Percent inhibition determined against human recombinant p60 c-Src tyrosine kinase at 100 uM
[3] = target: Proto-oncogene tyrosine-protein kinase Src (Homo sapiens) (UniProt P12931); assay: Percent inhibition of human recombinant p60 c-Src tyrosine kinase at 100 uM (inactive)

Proto-oncogene tyrosine-protein kinase Src (Homo sapiens), sequence (P12931 2-536 limits assumed): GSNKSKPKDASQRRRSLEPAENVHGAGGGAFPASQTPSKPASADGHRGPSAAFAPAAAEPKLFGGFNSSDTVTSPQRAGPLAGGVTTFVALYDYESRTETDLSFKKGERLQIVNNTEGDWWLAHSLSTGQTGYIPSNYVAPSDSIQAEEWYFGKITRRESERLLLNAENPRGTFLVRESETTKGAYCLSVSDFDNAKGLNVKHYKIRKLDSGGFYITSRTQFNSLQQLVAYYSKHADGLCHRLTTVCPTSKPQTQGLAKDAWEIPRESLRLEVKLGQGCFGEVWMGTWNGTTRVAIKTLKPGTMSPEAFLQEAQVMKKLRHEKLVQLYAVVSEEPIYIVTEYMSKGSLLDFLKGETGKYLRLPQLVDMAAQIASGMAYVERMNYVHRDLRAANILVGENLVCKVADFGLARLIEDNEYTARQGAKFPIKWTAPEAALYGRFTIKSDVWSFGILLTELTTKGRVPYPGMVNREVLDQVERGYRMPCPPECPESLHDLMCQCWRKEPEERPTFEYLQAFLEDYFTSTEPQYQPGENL

Compound	inhibition [2]	also measured
COC(=O)c1cc2cc(O)ccc2[nH]1	–	inhibition [1]: 40%
O=C(Nc1ccc(O)cc1)c1cc2cc(O)ccc2[nH]1	45%	–
O=C(NCc1ccc(O)cc1)c1cc2ccccc2[nH]1	36%	–
O=C(O)c1ccc(CNC(=O)c2cc3cc(O)ccc3[nH]2)cc1	–	inhibition [3]: inactive
COC(=O)c1ccc(CNC(=O)c2cc3cc(O)ccc3[nH]2)cc1	11%	–
COc1ccc(CNC(=O)c2cc3cc(O)ccc3[nH]2)cc1	18%	–
COc1ccccc1CNC(=O)c1cc2cc(O)ccc2[nH]1	21%	–
O=C(NCc1ccccc1O)c1cc2cc(O)ccc2[nH]1	24%	–
O=C(NCc1ccc(O)cc1)c1cc2cc(O)ccc2[nH]1	54%	–
O=C(Nc1cccc(F)c1)c1cc2cc(O)ccc2[nH]1	21%	–
COc1ccccc1NC(=O)c1cc2cc(O)ccc2[nH]1	3%	–

The next lines start with results.

inhibition [2]	Compound	also measured
13%	C[C@H](NC(=O)c1cc2cc(O)ccc2[nH]1)c1cccc(O)c1	–
43%	O=C(Nc1ccccc1O)c1cc2cc(O)ccc2[nH]1	–
74%	O=C(NCc1cccc(O)c1)c1cc2cc(O)ccc2[nH]1	–
30%	O=C(Nc1cccc(O)c1)c1cc2cc(O)ccc2[nH]1	–
57%	O=C(NCc1cccc(F)c1)c1cc2cc(O)ccc2[nH]1	–
15%	C[C@@H](NC(=O)c1cc2cc(O)ccc2[nH]1)c1cccc(O)c1	–
7%	O=C(O)Cc1ccc(NC(=O)c2cc3cc(O)ccc3[nH]2)cc1	–
28%	CCOC(=O)c1cc2cc(O)c(O)cc2[nH]1	–
21%	COc1cccc(NC(=O)c2cc3cc(O)ccc3[nH]2)c1	–
32%	COC(=O)Cc1ccc(NC(=O)c2cc3cc(O)ccc3[nH]2)cc1	–
